From PubChem BioAssay AID1963423 (Molecular Pharmacology Branch, DTP, NCI, 2024) come the findings set out here.

In general, viability, T/C refers to the ratio of treated to control. For orientation: IC50 means the concentration at which inhibition is half-maximal.

The subject of the test is 439559-082-T-J2-PDC complex spheroid growth. In words: Anticancer human tumor 439559-082-T-J2-PDC patient-derived colon adenocarcinoma cell line growth inhibition [Asc]. The settings on record: for viability, T/C: stronger effect = lower value. The method, then: Multicellular complex tumor spheroid response to apoptosis pathway targeting inhibitors Alrizomadlin, Pelcitoclax, and Dasminapant in combination with a variety of drugs and investigational agents in selected tumor cell lines
The MDM2 inhibitor alrizomadlin, the Bcl-2/Bcl-xL inhibitor pelcitoclax, and the IAPs inhibitor dasminapant were evaluated both individually and in combination with standard of care and investigational anticancer small molecules within a complex spheroid model of solid tumors. . Complex spheroids include a stromal component modeled by human endothelial cells (HUVEC) and fibroblasts modeled by human mesenchymal stem cells (MSCs). The concentration ranges selected for each drug and investigational agent were based upon clinically achievable concentrations if the clinical Cmax of the agent was known.
Compounds. The drugs and investigational agents: alrizomadlin (APG-115; NSC831270), pelcitoclax (APG-1252; NSC835773), dasminapant (APG-1387;NSC834197), TAK-243 (NSC785004), copanlisib (NSC809693), olaparib (NSC753686), talazoparib (NSC767125), cobimetinib (NSC 768068), eltanexor (KPT-8602, NSC 794443), abemaciclib (NSC 768073), sotorasib (NSC818433), adagrasib (NSC 831453), MRTX-1133 (NSC 836407), Iadademestat (ORY1001, NSC 806812), and RMC-4630 (NSC839698), were obtained from the NCI Developmental Therapeutics Program Chemical Repository. The FDA-approved anticancer drug set is available from the Developmental Therapeutics Program at https://dtp.cancer.gov/organization/dscb/obtaining/available plates.htm. […] The stock solutions were prepared in dimethyl sulfoxide (DMSO, Sigma-Aldrich, St. Louis, MO, cat. D2650) at 800-fold the tested concentration and stored at -70 degrees C prior to their use. All drugs and investigational agents were tested over a range starting from a high concentration at or near the clinical Cmax and decreasing in half-log increments. If the clinical Cmax for an agent had not been determined, the highest concentration tested was 10 microM.
The patient-derived cancer (PDC) cell lines include five colon adenocarcinomas: 186277-243-T-J2-PDC, 616215-338-R-J1-PDC, 439559-082-T-J2-PDC, 463943-066-T-J2-PDC, and 519858-162-T-J1-PDC; three pancreatic carcinomas: 323965-272-R-J2-PDC, 521955-158-R6-J3-PDC, and 521955-158-R2-J5-PDC; two uterine sarcomas: 327498-152-R-J2-PDC and 993429-296-R-J1-PDC; two rhabdomyosarcomas: 755483-174-R-J1-PDC and 772245-204-R-J1-PDC; two soft tissue sarcomas: 126254-015-R-J1-PDC and 494315-158-R-J1-PDC; two malignant fibrous histiocytomas: 317291-083-R-J1-PDC and 596521-263-R-J1-PDC; two breast carcinomas: 171881-019-R-J1-PDC and 885512-296-R-J2-PDC; and one ovarian carcinoma: 6556581-035-R-J-PDC were obtained from the NCI PDMR, (https://pdmr.cancer.gov). The established cell lines HSSY-2 synovial sarcoma (RRID:CVCL 8719), SYO-1 synovial sarcoma (RRID:CVCL_7146), MPNST malignant peripheral neural sheath tumor were obtained from the Sloan Kettering Institute. The following established cell lines were purchased from the American Type Culture Collection (ATCC, Manassas, VA), Sor the received from the NCI repository:, PANC-1 pancreatic carcinoma (CRL-1469, RRID:CVCL_0480), OVCAR-5 ovarian carcinoma (RRID:CVCL_1628), OVCAR-8 ovarian carcinoma (RRID:CVCL_1629), , MCF-7 breast carcinoma (CRL-12584, RRID:CVCL_0031), MDA-MB-231 breast carcinoma (CRL-12532, RRID:CVCL_0062), NCI-H1876 small cell lung carcinoma (CRL-5902, RRID:CVCL_1503), NCI-H510A small cell lung carcinoma (HTB-184, RRID:CVCL_1565), NCI-H1417 (CRL-5869, RRID:CVCL_1469), and NCI-H196 small cell lung carcinoma (CRL-5823, RRID:CVCL_1509). Dr. Peter Houghton (Greehey Children's Cancer Research Institute, University of Texas Health Science Center, San Antonio, TX) provided Rh-18 rhabdomyosarcoma (RRID:CVCL_1659). Pooled donor human umbilical vein endothelial cells (HUVEC, Lonza, cat. CC-2519) and human mesenchymal stem cells (hMSC, Lonza, cat. PT-2501) were purchased from Lonza (Walkersville, MD).
Cell Culture. […]

[1] abbreviates: compound alone, run of 10/11/2022.

SMILES strings stand for the structures. Where “and” joins values, the source holds several entries; their conditions need not be identical. Equal values may be shown once.
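Also: spheroids exposed to agents for 7 days starting day 3 after seeding.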
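For viability, T/C in this document: percent of DMSO vehicle control viability with 100% = vehicle.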

In the case of `C#Cc1c(F)ccc2cc(O)cc(-c3ncc4c(N5CC6CCC(C5)N6)nc(OCC56CCCN5CC(F)C6)nc4c3F)c12` (stereo not drawn), the viability, T/C runs as follows: (compound 0.0316 µM) 95.9% and 87.4% and 92.5%; (compound 0.1 µM) 77.6% and 80.5% and 82.3%; (compound 0.316 µM) 68.5% and 59.4% and 65.4%; (compound 1 µM) 64.9% and 53.9% and 55.5%; (compound 3.16 µM) 55.5% and 55.7% and 51.2%; (compound 10 µM) 41% and 37.7% and 39.6%. Also, the IC50 (curve of compound) was 4300 nM and 2360 nM and 2430 nM.

For `C=C(F)C(=O)N1CCN(c2nc(OCC3CCCN3C)nc3c2CCN(c2cccc4cccc(Cl)c24)C3)CC1CC#N` (stereo not drawn), the viability, T/C reads like this: (compound 0.0316 µM) 91.3% and 104% and 106%; (compound 0.1 µM) 90% and 103% and 109%; (compound 0.316 µM) 90.5% and 97.4% and 104%; (compound 1 µM) 96.6% and 97.8% and 102%; (compound 3.16 µM) 102% and 86.9% and 95%; (compound 10 µM) 7.1% and 14.9% and 23.5%. In addition, the IC50 (curve of compound) is 5670 nM and 5690 nM and 6540 nM.

As to `C=CC(=O)N1CCN(c2nc(=O)n(-c3c(C)ccnc3C(C)C)c3nc(-c4c(O)cccc4F)c(F)cc23)C(C)C1` (stereo not drawn), the viability, T/C is, setting by setting: (compound 0.0316 µM) 96.5% and 102% (2×); (compound 0.1 µM) 114% and 106% and 101%; (compound 0.316 µM) 103% and 102% and 108%; (compound 1 µM) 104% and 106% and 114%; (compound 3.16 µM) 108% and 106% and 92.2%; (compound 10 µM) 103% (2×) and 101%. In addition, the IC50 (curve of compound) was more than 10000 nM.

Turning to `CCN1C(C(=O)NC23CCC(C(=O)O)(CC2)CC3)C(c2cccc(Cl)c2F)C2(C(=O)Nc3cc(Cl)ccc32)C12CCCCC2` (stereo not drawn), the viability, T/C reads like this: (compound 0.00949 µM) 105% and 100%; (compound 0.03 µM) 101% [middle of 15 runs]; (compound 0.0949 µM) 99.9% [middle of 15 runs]; (compound 0.3 µM) 96.8% [middle of 15 runs]; (compound 0.949 µM) 102% [middle of 15 runs]; (compound 3 µM) 92.1% [middle of 15 runs]. For the same molecule, the half-inhibitory concentration (IC50) under setting [1] was more than 3000 nM and the IC50 (curve of compound) is more than 3000 nM.

For the molecule `CCN1CCN(Cc2ccc(Nc3ncc(F)c(-c4cc(F)c5nc(C)n(C(C)C)c5c4)n3)nc2)CC1`, the viability, T/C is 105% and 98.4% and 99.2% (compound 0.00316 µM); 111% and 104% and 97.7% (compound 0.01 µM); 89.4% and 96.5% and 95.8% (compound 0.0316 µM); 92% and 89.7% and 89.2% (compound 0.1 µM); 93.1% and 92.7% and 81.8% (compound 0.316 µM); 84.8% and 84.4% and 70.8% (compound 1 µM). The IC50 (curve of compound) was more than 1000 nM.

With `CNC(C)C(=O)NC1CN(S(=O)(=O)c2cccc(S(=O)(=O)N3CCC4CCC(C(=O)NC(c5ccccc5)c5ccccc5)N4C(=O)C(NC(=O)C(C)NC)C3)c2)CCC2CCC(C(=O)NC(c3ccccc3)c3ccccc3)N2C1=O` (stereo not drawn), the viability, T/C by setting is: (compound 0.01 µM) 103% [middle of 9 runs]; (compound 0.0316 µM) 98.1% [middle of 8 runs]; (compound 0.1 µM) 99.7% [middle of 9 runs]; (compound 0.316 µM) 98.3% [middle of 9 runs]; (compound 1 µM) 88.1% [middle of 9 runs]. Moreover, the IC50 is more than 1000 nM (compound alone, run of 11/15/2022) and more than 1000 nM (curve of compound).

Take `COc1c(OCCCN2CCOCC2)ccc2c3n(c(=NC(=O)c4cnc(N)nc4)nc12)CCN3`: the viability, T/C reads like this: (compound 0.00316 µM) 100% and 101% and 93.5%; (compound 0.01 µM) 104% (2×) and 90.9%; (compound 0.0316 µM) 81.6% and 87.4% and 102%; (compound 0.1 µM) 78.7% and 76.9% and 72.9%; (compound 0.316 µM) 80% and 71.6% and 75.5%; (compound 1 µM) 58.6% and 59% and 69.4%. In addition, the half-inhibitory concentration (IC50) (curve of compound) is more than 1000 nM.

As for `Cc1c(S(C)(=O)=O)c(-c2cc(F)cc(N3CCN(c4ccc(NS(=O)(=O)c5ccc(NC(CCN6CCC(C(=O)OCCCP(=O)(O)O)CC6)CSc6ccccc6)c(S(=O)(=O)C(F)(F)F)c5)cc4)CC3)c2)c(-c2ccc(Cl)cc2)n1C(C)C` (stereo not drawn), the viability, T/C is 97.4% [middle of 14 runs] (compound 0.1 µM); 97.4% [middle of 14 runs] (compound 0.316 µM); 91% [middle of 14 runs] (compound 1 µM); 87.2% [middle of 14 runs] (compound 3.16 µM); 74.9% [middle of 14 runs] (compound 10 µM). Under setting [1], the IC50 was more than 10000 nM.

`Cc1nc(N2CCC3(CC2)COC(C)C3N)c(CO)nc1Sc1ccnc(N)c1Cl` (stereo not drawn): the viability, T/C was 89.8% and 104% and 107% (compound 0.00949 µM); 93.7% and 111% and 108% (compound 0.03 µM); 102% and 99.4% and 101% (compound 0.0949 µM); 110% and 91.8% and 99.9% (compound 0.3 µM); 99.8% and 94.1% and 92% (compound 0.949 µM); 72.1% and 79.7% and 81.7% (compound 3 µM). Further, the IC50 (curve of compound) was more than 3000 nM.

Consider `Cn1ncnc1[C@H]1c2n[nH]c(=O)c3cc(F)cc(c23)N[C@@H]1c1ccc(F)cc1`, for which the viability, T/C runs as follows: (compound 0.000316 µM) 104% and 97.5% and 103%; (compound 0.001 µM) 108% and 97.8% and 112%; (compound 0.00316 µM) 97.6% and 103% and 92%; (compound 0.01 µM) 95.5% and 95.2% and 97.6%; (compound 0.0316 µM) 102% and 105% and 107%; (compound 0.1 µM) 98.1% and 92.3% and 98.5%. Moreover, the IC50 (curve of compound) is more than 100 nM.

Consider `NC(=O)C(=Cn1cnc(-c2cc(C(F)(F)F)cc(C(F)(F)F)c2)n1)c1cncnc1`, for which the viability, T/C (compound 0.000949 µM) is 111% and 110% and 105%; the viability, T/C (compound 0.003 µM) was 105% and 102% and 86.8%; the viability, T/C (compound 0.00949 µM) was 101% and 99% and 94.4%; the viability, T/C (compound 0.03 µM) was 101% and 91.7% and 89.8%; the viability, T/C (compound 0.0949 µM) was 92.7% and 89.7% and 90.7%; the viability, T/C (compound 0.3 µM) is 82% and 86.4% and 78.2%. In addition, under “curve of compound”, the IC50 was more than 300 nM.

Turning to `NC1CCC(NC2CC2c2ccccc2)CC1` (stereo not drawn), the viability, T/C reads like this: (compound 0.000316 µM) 106% and 107% and 103%; (compound 0.001 µM) 119% and 117% and 92.5%; (compound 0.00316 µM) 112% and 106% and 107%; (compound 0.01 µM) 114% and 108% and 92.8%; (compound 0.0316 µM) 109% and 103% and 96%; (compound 0.1 µM) 112% and 106% and 95.2%. Besides, the IC50 (curve of compound) was more than 100 nM.

As for `O=C(c1cc(Cc2n[nH]c(=O)c3ccccc23)ccc1F)N1CCN(C(=O)C2CC2)CC1`, the viability, T/C reads like this: (compound 0.0316 µM) 98.8% and 105% and 96.8%; (compound 0.1 µM) 111% and 109% and 90.9%; (compound 0.316 µM) 99.9% and 95% and 96.8%; (compound 1 µM) 101% and 97.8% and 111%; (compound 3.16 µM) 105% and 104% and 106%; (compound 10 µM) 102% and 100% and 83.9%. Moreover, the IC50 (curve of compound) was more than 10000 nM.

Take `O=C(c1ccc(F)c(F)c1Nc1ccc(I)cc1F)N1CC(O)([C@@H]2CCCCN2)C1`: the viability, T/C by setting is: (compound 0.00316 µM) 101% and 106% (2×); (compound 0.01 µM) 95.1% and 106% and 95.4%; (compound 0.0316 µM) 96.9% and 81.6% and 88.7%; (compound 0.1 µM) 63.6% and 60.9% and 69.5%; (compound 0.316 µM) 58% and 50.6% and 49.3%; (compound 1 µM) 13.8% and 24.2% and 28.6%. Also, the IC50 (curve of compound) was 334 nM and 240 nM and 307 nM.
